From patent publication US20250215029A1 (Recludix Pharma, Inc., priority 2022, published 2025) come the findings set out here.

Each structure is given as a SMILES string. Where two headings read alike, the source gives them in different places. Where only a bound is given, the exact number is not on record here.

Assay [1] deals with T1, Recombinant STAT3 protein (STAT3 (G127-I722)) (Homo sapiens, UniProt P40763).
T1 construct: Recombinant STAT3 protein (STAT3 (G127-I722))
The experiment in a line: STAT3 Fluorescence Polarization (FP) Assay. It is filed as binding. To be noted: probe 5-FAM-GpYLPQTV-NH2 2 nM, 45-minute incubation. In a few lines: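 Read-out is fluorescence polarization (mP) after 45 min at room temperature, with IC50 fitted by nonlinear regression against log compound concentration. Mixture: 25 nM STAT3 (G127-I722), 2 nM 5-FAM-GpYLPQTV-NH2 phosphopeptide, 10 mM HEPES pH 7.4 buffer, 1% DMSO.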

For assay [2], the target named is T2, Recombinant STAT6 protein (STAT6 (W123-T658)) (Homo sapiens, UniProt P42226).
T2 construct: Recombinant STAT6 protein (STAT6 (W123-T658))
T2 sequence (P42226 123-658): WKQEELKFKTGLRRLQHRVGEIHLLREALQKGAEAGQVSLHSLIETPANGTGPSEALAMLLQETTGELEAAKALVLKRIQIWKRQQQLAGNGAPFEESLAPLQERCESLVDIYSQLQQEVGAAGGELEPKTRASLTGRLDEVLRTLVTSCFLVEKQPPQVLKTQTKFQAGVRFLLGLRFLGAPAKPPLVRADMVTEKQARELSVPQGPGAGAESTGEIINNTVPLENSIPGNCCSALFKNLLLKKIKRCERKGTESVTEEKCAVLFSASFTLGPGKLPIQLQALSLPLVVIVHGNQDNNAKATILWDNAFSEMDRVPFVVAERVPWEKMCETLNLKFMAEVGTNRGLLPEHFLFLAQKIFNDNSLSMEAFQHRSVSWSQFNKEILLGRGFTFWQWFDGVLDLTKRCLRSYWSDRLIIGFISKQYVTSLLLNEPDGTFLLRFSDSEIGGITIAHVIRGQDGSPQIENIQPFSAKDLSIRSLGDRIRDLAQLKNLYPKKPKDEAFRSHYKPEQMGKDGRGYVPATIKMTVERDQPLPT
In words: STAT6 Fluorescence Polarization (FP) Assay. It is filed as binding. To be noted: 45-minute incubation. In short, it runs like this:
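Probe displacement format: serially diluted compounds incubated 45 min at room temperature with 2 nM fluorescent phosphopeptide and 250 nM STAT6 (W123-T658) in pH 7.4 HEPES buffer, 1% DMSO final. Polarization signal plotted against log concentration, IC50 fitted by nonlinear regression.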
A general note: In fluorescence polarisation assays a small probe gives low polarisation when free and higher when bound to something large.

[3] abbreviates: STAT3 (G127-I722) 25 nM, read-out: STAT3 (FP assay IC50 class).
Setting [4] is: STAT6 (W123-T658) 250 nM, probe 5-FAM-Ap[…]-NH2 2 nM, read-out: STAT6 (FP assay IC50 class).
Setting [5] is: STAT3 25 nM, read-out: STAT3 (FP assay IC50).
[6] abbreviates: STAT6 250 nM, probe 5-FAM-Ap[…]-NH2 2 nM, read-out: STAT6 (FP assay IC50).

T1 sequence (P40763 127-722): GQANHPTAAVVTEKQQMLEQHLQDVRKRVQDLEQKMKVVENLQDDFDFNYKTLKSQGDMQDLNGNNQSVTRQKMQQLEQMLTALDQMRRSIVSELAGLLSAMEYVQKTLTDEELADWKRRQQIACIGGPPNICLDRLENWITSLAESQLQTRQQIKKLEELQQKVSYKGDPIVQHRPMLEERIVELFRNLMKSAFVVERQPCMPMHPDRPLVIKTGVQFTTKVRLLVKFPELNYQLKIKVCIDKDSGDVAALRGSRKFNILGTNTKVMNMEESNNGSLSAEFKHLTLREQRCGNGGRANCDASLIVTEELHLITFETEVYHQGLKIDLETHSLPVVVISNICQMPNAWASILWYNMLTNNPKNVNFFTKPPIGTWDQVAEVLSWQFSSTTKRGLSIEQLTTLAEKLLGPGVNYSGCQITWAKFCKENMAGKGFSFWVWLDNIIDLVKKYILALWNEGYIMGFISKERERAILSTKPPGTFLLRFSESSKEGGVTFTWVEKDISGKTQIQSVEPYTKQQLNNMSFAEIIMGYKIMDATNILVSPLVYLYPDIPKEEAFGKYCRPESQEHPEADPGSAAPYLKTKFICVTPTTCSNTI

Regarding `O=C(N[C@H]1CCCC[C@H]2CC[C@@H](C(=O)N3CC(c4cnccc4F)C3)N2C1=O)c1cc2cc(CP(=O)(O)O)ccc2s1` [Compound 566, ((2-(((3S,6S,10aS)-3-(3-(4-fluoropyridin-3-yl)azetidine-1-carbonyl)-5-oxodecahydropyrrolo[1,2-a]azocin-6-yl)carbamoyl)benzo[b]thiophen-5-yl)methyl)phosphonic acid], the IC50 (commonly the concentration that inhibits the measured activity by half) was less than 0.1 µM in assay [1] (setting [3]) and 3 to 30 µM in assay [2] (setting [4]).
With `O=C(N[C@H]1CCCC[C@H]2CC[C@@H](C(=O)N3CC(c4ccccc4)CC34CC4)N2C1=O)c1ccc2cnc(CP(=O)(O)O)cc2c1` (stereo partly drawn) [Compound 570, ((6-(((3S,6S,10aS)-5-oxo-3-(6-phenyl-4-azaspiro[2.4]heptane-4-carbonyl)decahydropyrrolo[1,2-a]azocin-6-yl)carbamoyl)isoquinolin-3-yl)methyl)phosphonic acid], the results for the half-maximal inhibitory concentration (IC50) in assay [1] (setting [3]) and in assay [2] (setting [4]) were 1 to 10 µM and 3 to 30 µM, respectively.
For the compound `CCOc1ccncc1C1CN(C(=O)[C@@H]2CC[C@@H]3CCC[C@H](NC(=O)c4cc5cc(C(F)P(=O)(O)O)ccc5s4)C(=O)N32)C1` (stereo partly drawn) [Compound 597, ((2-(((3S,6S,9aS)-3-(3-(4-ethoxypyridin-3-yl)azetidine-1-carbonyl)-5-oxooctahydro-1H-pyrrolo[1,2-a]azepin-6-yl)carbamoyl)benzo [b]thiophen-5-yl)fluoromethyl) phosphonic acid], the IC50 was less than 0.1 µM in assay [1] (setting [3]) and 3 to 30 µM in assay [2] (setting [4]).
The corresponding values for `CN(C)C(=O)N1CC[C@@H](NC(=O)[C@@H]2CC[C@@H]3CCCC[C@H](NC(=O)c4cc5cc(C(F)P(=O)(O)O)ccc5s4)C(=O)N32)C1` (stereo partly drawn) [Compound 529, ((2-(((3S,6S,10aS)-3-(((R)-1-(dimethylcarbamoyl)pyrrolidin-3-yl)carbamoyl)-5-oxodecahydropyrrolo[1,2-a]azocin-6-yl)carbamoyl)benzo[b]thiophen-5-yl)fluoromethyl)phosphonic acid] are 0.1 to 1 µM and 3 to 30 µM.
The corresponding values for `Cc1nccc(F)c1C1CN(C(=O)[C@@H]2CC[C@@H]3CCC[C@H](NC(=O)c4cc5cc(CP(=O)(O)O)ccc5s4)C(=O)N32)C1` [Compound 580, ((2-(((3S,6S,9aS)-3-(3-(4-fluoro-2-methylpyridin-3-yl)azetidine-1-carbonyl)-5-oxooctahydro-1H-pyrrolo[1,2-a]azepin-6-yl)carbamoyl)benzo[b]thiophen-5-yl)methyl)phosphonic acid] are 1 to 10 µM and 3 to 30 µM.
With `O=C(N[C@H]1CCC[C@H]2CC[C@@H](C(=O)N3CC(n4ncc5ccccc54)C3)N2C1=O)c1cc2cc(C(F)(F)P(=O)(O)O)ccc2s1` [Compound 821, ((2-(((3S,6S,9aS)-3-(3-(1H-indazol-1-yl)azetidine-1-carbonyl)-5-oxooctahydro-1H-pyrrolo[1,2-a]azepin-6-yl)carbamoyl)benzo [b]thiophen-5-yl)difluoromethyl) phosphonic acid], the figures for the IC50 in assay [1] (setting [3]) and in assay [2] (setting [4]) were 0.1 to 1 µM and 0.3 to 3 µM, respectively.
Turning to `COc1cncc(C2CN(C(=O)[C@@H]3CC[C@@H]4CCC[C@H](NC(=O)c5cc6cc(CP(=O)(O)O)ccc6s5)C(=O)N43)C2)c1C` [Compound 506, ((2-(((3S,6S,9aS)-3-(3-(5-methoxy-4-methylpyridin-3-yl)azetidine-1-carbonyl)-5-oxooctahydro-1H-pyrrolo[1,2-a]azepin-6-yl)carbamoyl)benzo[b]thiophen-5-yl)methyl)phosphonic acid], the concentration for half-maximal inhibition (IC50) is 1 to 10 µM in assay [1] (setting [3]) and 3 to 30 µM in assay [2] (setting [4]).
Regarding `CCO[C@@H]1CC[C@H](NC(=O)c2cc3cc(C(F)(F)P(=O)(O)O)ccc3s2)C(=O)N2[C@H](CC[C@H]2C(=O)N2CC(C(=O)N3CCOCC3)C2)C1` [Compound 9, ((2-(((3S,6S,9R,10aR)-9-ethoxy-3-(3-(morpholine-4-carbonyl)azetidine-1-carbonyl)-5-oxodecahydropyrrolo [1,2-a]azocin-6-yl)carbamoyl)benzo[b]thiophen-5-yl)difluoromethyl) phosphonic acid], the values for the concentration for half-maximal inhibition (IC50) in assay [1] (setting [5]) and in assay [2] (setting [6]) were 0.1 to 1 µM and 3 to 30 µM, respectively.
With `O=C(N[C@H]1CCCC[C@H]2CC[C@@H](C(=O)NC(CO)c3c[nH]c4ncccc34)N2C1=O)c1cc2cc(C(F)(F)P(=O)(O)O)ccc2s1` (stereo partly drawn) [Compound 645, (difluoro(2-(((3S,6S,10aS)-3-((2-hydroxy-1-(1H-pyrrolo[2,3-b]pyridin-3-yl)ethyl)carbamoyl)-5-oxodecahydropyrrolo [1,2-a]azocin-6-yl)carbamoyl)benzo [b]thiophen-5-yl)methyl) phosphonic acid], the values for the IC50 in assay [1] (setting [3]) and in assay [2] (setting [4]) were 0.1 to 1 µM and 3 to 30 µM, respectively.
For the compound `O=C(N[C@H]1CCC[C@H]2CC[C@@H](C(=O)N3CC(c4cnccc4C(F)F)C3)N2C1=O)c1cc2cc(C(F)(F)P(=O)(O)O)ccc2s1` [Compound 819, ((2-(((3S,6S,9aS)-3-(3-(4-(difluoromethyl)pyridin-3-yl)azetidine-1-carbonyl)-5-oxooctahydro-1H-pyrrolo[1,2-a]azepin-6-yl)carbamoyl)benzo [b]thiophen-5-yl)difluoromethyl) phosphonic acid], the IC50 lay in the range of 0.1 to 1 µM in assay [1] (setting [3]) and 0.3 to 3 µM in assay [2] (setting [4]).
Turning to `N#C[C@@H]1CN(C(=O)[C@@H]2CC[C@@H]3CCCC[C@H](NC(=O)c4cc5cc(C(F)P(=O)(O)O)ccc5s4)C(=O)N32)C[C@H]1c1ccccc1` (single isomer, unassigned) [Compound 225], the IC50 in assay [1] (setting [3]) is 1 to 10 µM; in assay [2] (STAT6 (W123-T658) 250 nM, probe 5-FAM-ApYKPFQDLI-NH2 2 nM, read-out: STAT6 (FP assay IC50 class)), no more than 0.3 µM.
Turning to `CC(F)(c1ccc2sc(C(=O)N[C@H]3CCCC[C@H]4CC[C@@H](C(=O)N5CCC(c6cccnc6)C5)N4C3=O)cc2c1)P(=O)(O)O` (stereo partly drawn) [Compound 222, (1-fluoro-1-(2-(((3S,6S,10aS)-5-oxo-3-(3-(pyridin-3-yl)pyrrolidine-1-carbonyl)decahydropyrrolo[1,2-a]azocin-6-yl)carbamoyl)benzo[b]thiophen-5-yl)ethyl)phosphonic acid], the IC50 in assay [1] (setting [3]) lay in the range of 0.1 to 1 µM; in assay [2] (setting [4]) it was 0.3 to 3 µM.
`CCc1ccncc1C1CN(C(=O)[C@@H]2CC[C@@H]3CCC[C@H](NC(=O)c4cc5cc(C(F)P(=O)(O)O)ccc5s4)C(=O)N32)C1` (stereo partly drawn) [Compound 205, ((2-(((3S,6S,9aS)-3-(3-(4-ethylpyridin-3-yl)azetidine-1-carbonyl)-5-oxooctahydro-1H-pyrrolo[1,2-a]azepin-6-yl)carbamoyl)benzo[b]thiophen-5-yl)fluoromethyl)phosphonic acid]: the values for the IC50 in assay [1] (setting [3]) and in assay [2] (setting [4]) were less than 0.1 µM and 3 to 30 µM, respectively.
Consider `N#C[C@@H]1[C@@H](c2ccccc2)CN(C(=O)[C@@H]2CC[C@@H]3C[C@@H](N4CCC4)CC[C@H](NC(=O)c4cc5cc([C@@H](F)P(=O)(O)O)ccc5s4)C(=O)N32)C12CC2` (single isomer, unassigned) [Compound 935], for which the IC50 was 1 to 10 µM in assay [1] (setting [3]) and no more than 0.3 µM in assay [2] (setting [4]).
For the compound `C[C@@H]1CC[C@H](NC(=O)c2cc3cc(CP(=O)(O)O)ccc3s2)C(=O)N2[C@H](CC[C@H]2C(=O)N2CC(c3cnccc3F)C2)C1` [Compound 603, ((2-(((3S,6S,9R,10aR)-3-(3-(4-fluoropyridin-3-yl)azetidine-1-carbonyl)-9-methyl-5-oxodecahydropyrrolo [1,2-a]azocin-6-yl)carbamoyl)benzo [b]thiophen-5-yl)methyl) phosphonic acid], the half-maximal inhibitory concentration (IC50) is less than 0.1 µM in assay [1] (setting [3]) and 3 to 30 µM in assay [2] (setting [4]).
For the compound `O=C(N[C@H]1CCCC[C@H]2CC[C@@H](C(=O)N3CC(c4cccnc4)C3)N2C1=O)c1cc2cc(C(F)(F)P(=O)(O)O)ccc2s1` [Compound 117, (difluoro(2-(((3S,6S,10aS)-5-oxo-3-(3-(pyridin-3-yl)azetidine-1-carbonyl)decahydropyrrolo [1,2-a]azocin-6-yl)carbamoyl)benzo[b]thiophen-5-yl)methyl) phosphonic acid], the IC50 is less than 0.1 µM in assay [1] (setting [5]) and 3 to 30 µM in assay [2] (setting [6]).
With `O=C(N[C@H]1CCC[C@H]2CC[C@@H](C(=O)N3CC(c4cccnc4)C3)N2C1=O)c1cc2cc(CP(=O)(O)O)c(F)cc2[nH]1` [Compound 864, ((6-fluoro-2-(((3S,6S,9aS)-5-oxo-3-(3-(pyridin-3-yl)azetidine-1-carbonyl)octahydro-1H-pyrrolo[1,2-a]azepin-6-yl)carbamoyl)-1H-indol-5-yl)methyl) phosphonic acid], the IC50 in assay [1] (setting [3]) was greater than 10 µM; in assay [2] (setting [4]) it was 3 to 30 µM.
